# According to US20240309015A1, “Methods for the Treatment of Fibrotic Disease” (SHY Therapeutics, LLC, priority 2021, published 2024):
# Columns and labels:
# KRas G12C mutant = test: Ras GTP Binding Domain Inhibition Assay, KRas G12C mutant; details: at 20 μM; for KRas G12C mutant + SOS: % inh.: with SOS; for KRas G12C mutant: % inh.: without SOS
# How it was run: (§1)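 Assay steps: protein on Ni-coated plate overnight at 4° C, compound for 3 h at room temperature (20 μM single point or serial dilution for IC50), then 100 nM dye-labelled GTP for 45 min. Washed wells read by fluorescence; Sos was added in the last hour in some runs.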
# IL-6 = test: Mouse IL6 Quantification Assay (LPS-stimulated RAW 264.7); format: cell-based; set-up: dose or concentration left out as unconfirmed; details: RAW264.7, ELISA, read-out: IL-6: % inh.
# TNFα = test: Mouse TNF Alpha Quantification Assay (LPS-stimulated RAW 264.7); format: cell-based; set-up: dose or concentration left out as unconfirmed; details: RAW264.7, ELISA, read-out: TNFα: % inh.
# KRas G12D mutant = test: Ras GTP Binding Domain Inhibition Assay, KRas G12D mutant; details: at 20 μM; for KRas G12D mutant + SOS: % inh.: with SOS; for KRas G12D mutant: % inh.: without SOS
# How it was run: as §1
# Rho-A = test: Ras GTP Binding Domain Inhibition Assay, Rho-A; details: at 20 μM; without SOS
# How it was run: as §1
# KRas wild type = test: Ras GTP Binding Domain Inhibition Assay, KRas wild type; details: at 20 μM; for KRas wild type + SOS: % inh.: with SOS; for KRas wild type: % inh.: without SOS
# How it was run: as §1
# Smad2/3 phosphorylation = test: Phospho-Smad2/3 Inhibition Assay in PANC-1; format: cell-based; details: Homo sapiens; 10 μM compound, 3 h; TGF-b1 stimulated PANC-1; western blot; read-out: % inh of Smad2/3 phosphorylation in PANC-1
# Experimental: Cell lines: Human tumor-derived pancreatic cancer cell line Panc-1 and mouse muscle myoblast C2C12 were purchased from American Type Culture Collection and grown in complete DMEM-High Glucose, supplemented with penicillin (100 U/mL), streptomycin (100 μg/mL), and 10% heat-inactivated FBS at 37° C. in a humidified incubator with 5% CO2.
# Method: Cells were plated at 350000 cells/well density in a 12-well plate, allowed 3 hours to adhere to the plate, then starved in the appropriate medium in the presence of 0.5% FBS overnight. The small molecules to be tested were added to the cells in the final concentration of 10 μM in the presence of 0.3% DMSO for 3 hours incubation at 37° C. For IC50 value determination, serial dilutions of compounds were added to cells under the same conditions. Next, Panc-1 cells were stimulated with 10 ng/ml TGF-b1 for 1 hour, and C2C12 cells were stimulated with 10 ng/ml TGF-b1 for 20 minutes (recombinant human TGF-b1, R&D Systems). After stimulation cells were lysed with lysis buffer containing 1% Triton X-100, EDTA, and Halt™ Protease & Phosphatase Inhibitor Cocktail (Thermo Scientific). Protein concentration was assessed by BCA protein assay (Thermo Scientific). Phosphorylation level of Smad2/Smad3 was determined by western blot.
# Western blot protocol: Equal amounts of protein (15-50 μg) were separated by SDS-PAGE and transferred to nitrocellulose membranes (Invitrogen by Thermo Fisher Scientific). The membrane was stained with Ponceau S Stain (Boston BioProducts) to verify uniform protein loading. Membranes were blocked with 10% milk and phosphorylation levels of Smad2/Smad3 were assessed by incubating overnight at 4° C. with the following antibodies: Phospho-Smad2 (Ser465/467) and Phosph-Smad3 (Ser423/425), both from Cell Signaling Technology. Then the membranes were incubated with HRP-conjugated secondary antibody (Jackson Immunoresearch, West Grove, PA). Bands were incubated in Amersham ECL Prime Western Blotting Detection Reagent (GE Healthcare) and visualized using the ChemiDoc MP imaging system (Bio-Rad).
Compound,KRas G12C mutant + SOS: % inh. (KRas G12C mutant),KRas G12C mutant: % inh. (KRas G12C mutant),inhibition (IL-6) [%],inhibition (TNFα) [%],KRas G12D mutant + SOS: % inh. (KRas G12D mutant; Table 7),KRas G12D mutant + SOS: % inh. (KRas G12D mutant; Table 8),KRas G12D mutant: % inh. (KRas G12D mutant; Table 7),KRas G12D mutant: % inh. (KRas G12D mutant; Table 8),Rho-A: % inh. (Rho-A),KRas wild type + SOS: % inh. (KRas wild type),KRas wild type: % inh. (KRas wild type),inhibition at 10 µM (Smad2/3 phosphorylation) [%]
"COc1cccc(-c2sc3nc(-c4nccn4C)nc(N[C@@H]4CC[C@@H](OC)C4)c3c2-c2ccccc2)c1F (racemic) [Compound 41, 6-(2-Fluoro-3-methoxyphenyl)-N-((1R,3R)-3-methoxycyclopentyl)-2-(1-methyl-1H-imidazol-2-yl)-5-phenylthieno[2,3-d]pyrimidin-4-amine]",D (D = 76-100% inhibition),B (B = 26-45% inhibition),76 to 100,76 to 100,C (C = 46-75% inhibition),C (C = 46-75% inhibition),A (A = 1-25% inhibition),A (A = 1-25% inhibition),0 (0 = 0% inhibition),D (D = 76-100% inhibition),B (B = 26-45% inhibition),76 to 100
"Cc1c(-c2ccn(C(C)C)n2)sc2nc(-c3nccn3C)nc(NCC3CN(C)CCO3)c12 (racemic) [Compound 25, rac-6-(1-Isopropyl-1H-pyrazol-3-yl)-5-methyl-2-(1-methyl-1H-imidazol-2-yl)-N-((4-methylmorpholin-2-yl)methyl)thieno[2,3-d]pyrimidin-4-amine]",D (D = 76-100% inhibition),D (D = 76-100% inhibition),76 to 100,46 to 75,D (D = 76-100% inhibition),D (D = 76-100% inhibition),D (D = 76-100% inhibition),D (D = 76-100% inhibition),D (D = 76-100% inhibition),D (D = 76-100% inhibition),D (D = 76-100% inhibition),0
"COc1cccc(-c2sc3nc(-c4nccn4C)nc(N[C@H]4C[C@H](OC)C4)c3c2-c2ccccc2)c1F [Compound 40, 6-(2-Fluoro-3-methoxyphenyl)-N-((1r,3r)-3-methoxycyclobutyl)-2-(1-methyl-1H-imidazol-2-yl)-5-phenylthieno[2,3-d]pyrimidin-4-amine]",D (D = 76-100% inhibition),C (C = 46-75% inhibition),76 to 100,76 to 100,D (D = 76-100% inhibition),D (D = 76-100% inhibition),C (C = 46-75% inhibition),C (C = 46-75% inhibition),B (B = 26-45% inhibition),D (D = 76-100% inhibition),C (C = 46-75% inhibition),76 to 100
"Cc1c(-c2ccn(C(C)C)n2)sc2nc(-c3nccn3C)nc(NCC3COCCN3C)c12 (racemic) [Compound 24, rac-6-(1-Isopropyl-1H-pyrazol-3-yl)-5-methyl-2-(1-methyl-1H-imidazol-2-yl)-N-((4-methylmorpholin-3-yl)methyl)thieno[2,3-d]pyrimidin-4-amine]",D (D = 76-100% inhibition),C (C = 46-75% inhibition),76 to 100,1 to 25,D (D = 76-100% inhibition),D (D = 76-100% inhibition),C (C = 46-75% inhibition),C (C = 46-75% inhibition),C (C = 46-75% inhibition),D (D = 76-100% inhibition),B (B = 26-45% inhibition),0
